The values below come from patent US8367659B2, “Oxazinyl isoflavonoid compounds, medicaments and use” (Marshall Edwards, Inc., priority 2007, dated 2013).

One data set has as its system THP-1 cells. Description: Cell viability of THP-1 cells in the NFκB assay. Type of data set: cell-based, human. The settings on record: 50 μM and 100 μM. The method, then: In brief, genetically modified THP-1 cells were seeded into wells of a 96-well plate (50×10^3 cells/well) in the presence of RPMI 1640 medium (70 μl). TNFα was added to each well (10 μl) to give a final concentration of 7.5 ng/ml. Dialyzed bovine serum was added (10 μl). Compounds dissolved in DMSO (10 μL) were then added (5 wells for each compound). Each plate contained a no-cell control (4 wells), a no-serum control (4 wells) and two serum controls. Plates were incubated for 5 h at 37° C. to allow for NFκB-stimulated beta-lactamase production. LiveBLAzer™ FRET B/G Substrate (CCF4-AM) substrate was then added to assay. CCF4-AM is a Forster resonance energy transfer (FRET) based substrate for beta-lactamase developed by Invitrogen Corp. Once CCFA-AM enters a cell, it is converted to negatively charged CCF4 by endogenous esterases. Excitation of this substrate at 409 nm leads to efficient FRET between the coumarin and fluorescein moieties, resulting in a green fluorescence detectable at 530 nm. The presence of beta-lactamase leads to cleavage of CCF4 and results in a loss of FRET, resulting in a robust blue fluorescent signal detectable at 460 nm. Thus, activity of beta-lactamase (a marker of NFκB-promoter activity) is measured as a product to substrate ratio (blue/green fluorescence ratio: 460 nm/530 nm). […]

The subject of data set [1] is NFκB-promoter activity in TNFa-stimulated THP-1 monocyte/macrophages. Description: NFκB promoter activity in TNFα-stimulated THP-1 cells (beta-lactamase reporter). Type of data set: cell-based, human. Conditions: for inhibition at 30 µM: Homo sapiens, THP-1, read-out: % inhibition compared to control; for inhibition at 30 µM / Inflammatory index: test compound 30 μM; for Inflammatory index: control 11.56 ± 0.49. The method, then: The assay utilizes a genetically modified THP-1 cell line and GeneBLAzer® beta-lactamase technology (Invitrogen Corp). The human THP-1 monocyte/macrophages contain a stably-transfected beta-lactamase reporter gene under control of the NFκB response element They respond to stimulation with TNF-a, which leads to activation of the NFκB signaling pathway. Co-incubation of cells with TNF-a and test material allows quantitative determination of the ability of test material to inhibit TNFa-stimulated beta-lactamase production. Inflammatory index is calculated as the ratio of beta-lactamase product to beta-lactamase substrate. In brief, genetically modified THP-1 cells were seeded into wells of a 96-well plate (50×10^3 cells/well) in the presence of RPMI 1640 medium (70 μl). TNFα was added to each well (10 μl) to give a final concentration of 7.5 ng/ml. Dialyzed bovine serum was added (10 μl). Compounds dissolved in DMSO (10 μL) were then added (5 wells for each compound). Each plate contained a no-cell control (4 wells), a no-serum control (4 wells) and two serum controls. Plates were incubated for 5 h at 37° C. to allow for NFκB-stimulated beta-lactamase production. LiveBLAzer™ FRET B/G Substrate (CCF4-AM) substrate was then added to assay. CCF4-AM is a Forster resonance energy transfer (FRET) based substrate for beta-lactamase developed by Invitrogen Corp. Once CCFA-AM enters a cell, it is converted to negatively charged CCF4 by endogenous esterases. Excitation of this substrate at 409 nm leads to efficient FRET between the coumarin and fluorescein moieties, resulting in a green fluorescence detectable at 530 nm. The presence of beta-lactamase leads to cleavage of CCF4 and results in a loss of FRET, resulting in a robust blue fluorescent signal detectable at 460 nm. Thus, activity of beta-lactamase (a marker of NFκB-promoter activity) is measured as a product to substrate ratio (blue/green fluorescence ratio: 460 nm/530 nm). The determination of inflammatory index has a within-plate CV of 2.1% and a between-plate CV of 8.9% This comparative study was conducted according to the assay method set out in the example at Section 2.4 above.

A further data set concerns red blood cells (RBC). Description: Peroxyl radical (AAPH)-induced red blood cell lysis. Type of data set: cell-based. The settings on record: for Time taken to reach half-lysis, time: test compounds at 10 μM, vehicle 40.0. How it is done:
Freshly collected heparinised venous blood (10 ml, on ice) was aliquotted into 1.8 ml sterile Eppendorf tubes and centrifuged for 10 minutes at 2600 rpm at 4° C. Plasma and buffy coat layers were removed (approximately […]) and packed red blood cells (RBC) were then washed by the addition of […], ice cold PBS. This washing procedure was repeated twice. Packed RBC were resuspended by the addition of 900 ml of ice-cold, sterile PBS (and termed RBC stock). RBC stocks were stored at 4° C. for a maximum of three days. All working suspensions of RBC were prepared fresh daily by diluting […] of RBC stock into 10 ml of ice-cold, sterile PBS and […] added to each well.
Stocks of AAPH were freshly prepared for individual experiments as follows. AAPH (1.22 gm) was dissolved in 7.5 ml of PBS to yield a 4× stock at 600 mM and […] aliquots (final concentration of 150 mM) were then added to each well to initiate the lysis assay. Stock solutions of test compounds (40 mM in 100% DMSO) were diluted in sterile PBS to yield final concentrations of […] per well. Appropriate controls were included in each experiment. All compound dilutions were adjusted to give final DMSO concentrations in each well of 0.25%. Peroxy-induced RBC lysis assays were performed in 96-flat bottom well microtitre plates with a total volume of […] per well. Turbidity of RBC suspensions were monitored using a Tecan microplate reader at 690 nm (37° C.) with gentle vortexing. Assays were performed in quadruplicate and readings were taken every 5 minutes over 5 hours. RBC lysis curves were constructed by plotting absorbance (mean of 4 readings) against time. Time to half-lysis was calculated by taking the highest absorbance reading (no lysis) and the lowest absorbance reading (maximum lysis). The sum of these two readings divided by two gave the absorbance at half-lysis. Simple regression analysis was used to calculate the time at which half-lysis absorbance occurred.
This comparative study was conducted according to the assay method set out in the example at Section 3.3 above.

Take `Oc1ccc(C2=Cc3cc4c(cc3OC2)OCN(Cc2ccccc2)C4)cc1` [Compound 1, 4-(3-Benzyl-2,3,4,8-tetrahydrochromeno[6,7-e][1,3]oxazin-7-yl)phenol]: the “cell viability” value in the data set on THP-1 cells was “reduced cell viability”. In addition, in data set [1], the inhibition at 30 µM worked out at 45.5% and the Inflammatory index is on record as 6.31 ± 0.36. The “Time taken to reach half-lysis, time” value with red blood cells (RBC) (Table 8) came to 141.6 min. Besides, the “Time taken to reach half-lysis, time” value with red blood cells (RBC) (comparative, Table 14) is recorded as 141.6 min.
As for `CC(c1ccccc1)N1COc2cc3c(cc2C1)C=C(c1ccc(O)cc1)CO3` (stereo not shown) [Compound 2, 4-(3-(1-Phenylethyl)-2,3,4,8-tetrahydrochromeno[6,7-e][1,3]oxazin-7-yl)phenol], the “cell viability” value in the data set with THP-1 cells was “reduced cell viability”. Further, in data set [1], the inhibition at 30 µM came to 34.8% and the Inflammatory index came to 7.54 ± 0.17. In addition, the “antioxidant activity, AAPH-induced time to half-lysis of red blood cells” value in the data set on red blood cells (RBC) is “delaying the AAPH-induced time to half-lysis”. In addition, in the data set on red blood cells (RBC) (Table 8), the “Time taken to reach half-lysis, time” value amounted to 124.3 min.
Turning to `Oc1cccc(C2=Cc3ccc(O)cc3OC2)c1` [Compound 37-DHE, 3′,7-dihydroxy-isoflav-3-ene, reference compound], the “NFκB inhibition” value in data set [1] (30 μM, FIG. 19) is reported as “inhibited NFκB”. Also, the “antioxidant activity, AAPH-induced time to half-lysis of red blood cells” value in the data set on red blood cells (RBC) is recorded as “delaying the AAPH-induced time to half-lysis”. Moreover, the “Time taken to reach half-lysis, time” value in the data set on red blood cells (RBC) (comparative, Table 14) is given as 126.6 min.

A word on the inhibition: it is how much of the control response was suppressed.
